{"source": "ChEMBL document CHEMBL3045953", "about": "“Pyrazolo[3,4-d]pyrimidine analogues: synthesis, characterization and their in vitro antiamoebic activity” (Med Chem Res, 2013)"}
{"system": "MCF7", "test": "Cytotoxicity against Homo sapiens (human) MCF-7 cells assessed as decrease in number of viable cells after 48 hr by MTT assay", "format": "ADME, cell-based", "settings": "MCF7, 48 h", "units": {"IC50": "µM"}}
{"smiles": "Cc1ccc(S(=O)(=O)n2nc(-c3ccccc3)c3c(N)ncnc32)cc1", "IC50": "> 250"}
{"smiles": "Cc1ncc([N+](=O)[O-])n1CCO", "note": "[METRONIDAZOLE]", "IC50": "> 250"}
{"smiles": "CC(=O)Nc1ccc(S(=O)(=O)n2nc(-c3ccccc3)c3c(N)ncnc32)cc1", "IC50": "> 250"}
{"system": "Entamoeba histolytica", "test": "Antiamoebic activity against Entamoeba histolytica HM-1:IMSS trophozoite assessed as growth inhibition after 72 hr by microdilution method", "format": "functional, organism-based", "settings": "not given", "units": {"IC50": "µM"}}
{"smiles": "Cc1ccc(-c2cc(-c3cccc(-c4cc(-c5ccc(C)cc5)nc(N5CCCC5)n4)c3)nc(N3CCCC3)n2)cc1", "IC50": 0.16}
{"smiles": "Cc1ccc(S(=O)(=O)n2nc(-c3ccccc3)c3c(N)ncnc32)cc1", "IC50": 0.57}
{"smiles": "CS(=O)(=O)n1nc(-c2ccccc2)c2c(N)ncnc21", "IC50": 5.15}
{"smiles": "Nc1ncnc2c1c(-c1ccccc1)nn2S(=O)(=O)c1cc(Cl)ccc1Cl", "IC50": 2.37}
{"smiles": "Nc1ncnc2c1c(-c1ccccc1)nn2S(=O)(=O)c1ccc2ccccc2c1", "IC50": 3.11}
{"smiles": "Nc1ncnc2c1c(-c1ccccc1)nn2S(=O)(=O)c1ccc(Cl)cc1", "IC50": 3.23}
{"smiles": "Nc1ncnc2c1c(-c1ccccc1)nn2S(=O)(=O)c1ccccc1", "IC50": 4.24}
{"smiles": "CC(=O)Nc1ccc(S(=O)(=O)n2nc(-c3ccccc3)c3c(N)ncnc32)cc1", "IC50": 0.68}
{"smiles": "Nc1ncnc2c1c(-c1ccccc1)nn2S(=O)(=O)c1ccc([N+](=O)[O-])cc1", "IC50": 2.52}
